“And” between values parts separate entries of the source, which are not always exact repeats. Equal entries are not always repeated.

Experiment [1] has as its system peripheral mast cells of TgAPP mice. The experiment is described as follows: In vivo mast cell analysis (flow cytometry of whole blood, CD117 / FcεR1). The note with it: for ratio of immature-to-mature mast cells (c-KIT+ versus c-KIT+/FcεR1α+) in whole blood: TgAPP mice, BK40143 5 mg/kg, BK40197 45 mg/kg, 6 wk, vs DMSO. Set-up: species or system mouse; key to CD117 (single-labelled mast cells): % of single-labelled (CD117+) mast cells; CD117 Total: unit not given here. The source says: c-KIT is responsible for mast cell development and homeostasis ([Lake et al, 1978]; [Linnekin, 1999]; [Kitamura et al, 2006]). TKs are the central driving force for processes leading to mast cell activation ([Parravicini et al, 2002]; [Gomez et al, 2005]). Multiple receptors are capable of mediating or modifying mast cell activation ([Kraft & Kinet, 2007]; [Kuehn & Gilfillan, 2007]), the major receptor responsible being FcεRI, the high affinity receptor for immunoglobulin E (IgE) ([Rivera & Gilfillan, 2006]). Mast cells are tissue-resident cells of hematopoietic lineage which are derived from CD13^+CD34^+KIT(CD117)^+ bone marrow pluripotent progenitors ([Kirshenbaum et al, 1999]). Although mast cells play an important role in the innate immune system ([Marshall, 2004]; [Galli et al, 2005]), these cells are also responsible for the detrimental exaggerated reactions to antigen ([Galli et al, 2008]) that follow the release of potent inflammatory mediators as a consequence of receptor-mediated mast cell activation ([Metcalfe et al, 1997]). The progression of these cells to fully mature mast cells is dependent on c-KIT activation which occurs because of stem cell factor-induced c-KIT dimerization and auto-phosphorylation ([Kirshenbaum et al, 1999]). To verify the functional effects of BK40143 and BK40197 on c-KIT inhibition, we investigated whether inhibition of c-KIT with BK40143 and BK40197 affects peripheral mast cell populations in vivo. We collected whole blood samples from Tg(SwDI) (referred to as TgAPP) mice treated with 5 or 45 mg/kg of each drug, respectively, or DMSO for 6 wk before isolating mast cells for analysis via flow cytometry (Fig 3A–C). Whole blood was sorted for mast cells using a triple gating strategy: 647 anti-CD45 to isolate leukocytes, PE anti-c-KIT to isolate mast cells, and APC/fire anti-FcεR1α to identify mature mast cells. The ratio of immature-to-mature mast cells (c-KIT+ versus c-KIT+/ FcεR1α+) was compared between c-KIT inhibited and DMSO-treated controls to determine the functional consequence of c-KIT inhibition on peripheral mast cell maturation.
Whole blood samples were harvested from the right ventricle of treated and untreated mice and added to 1,000 U/ml heparin-coated tubes to prevent coagulation. 100 μl of blood was then treated with three flow-conjugated antibodies: 647 anti-mouse CD45 (cat. #103123; BioLegend), PE anti-mouse CD117 (c-KIT) (cat. # 105807; BioLegend), and APC/fire 750 anti-mouse FcεR1α (cat. #134339; BioLegend) for 30 min, then treated with 1x RBC lysis buffer (cat. #420301; BioLegend) for 20 min. Cells were washed and resuspended in cell staining buffer before being analyzed on a Becton Dickinson LSRFortessas flow cytometer. Immature-to-mature mast cell ratio was calculated by dividing the percentage of single-labelled (CD117+) mast cells by the total number of c-KIT expressing cells (CD117+ plus CD117+ FcεR1+). All animal work was approved by Georgetown University Animal Care and Use Committee (GUACUC).
In general terms: A flow cytometer gives signals particle by particle.

For experiment [2], the system named is amyloid-beta in TgAPP mice. The experiment is described as follows: Immunohistochemistry for amyloid-beta (6E10), hippocampus. The class given is in vivo, mouse. The note with it: BK40143 5 mg/kg, BK40197 45 mg/kg, vs DMSO. The procedure:
Staining for amyloid-beta and microglia was performed on left brain hemispheres collected from treated and untreated mice. Brains were cryoprotected with 30% sucrose and sectioned at 30 μm on a cryostat. Sections were then treated with an anti-amyloid beta (6E10, cat. #803001; BioLegend) or anti-IBA1 (cat. # 018-28523; Wako Chemicals) primary followed by either an AlexaFluor secondary (Thermo Fisher Scientific) and DAPI mounting medium (Vector Labs) or a biotinylated secondary and 3, 3′ diaminobenzidine chromogen substrate. Slides were imaged on either a Leica DMi8 light microscope or a Zeiss LSM 800 confocal microscope.

The mark [3] stands for this setting: 5mg/kg, whole blood, individual mice.

Take `Cc1cccc(-c2cc3nccc(N4CCOCC4)c3s2)c1` [BK40197]: in experiment [1], the “ratio of immature-to-mature mast cells (c-KIT+ versus c-KIT+/FcεR1α+) in whole blood” value is “not statistically significant (P = 0.07) increase in immature-to-mature mast cell ratio”. Moreover, the “amyloid concentrations in dentate gyrus (6E10 staining)” value in experiment [2] is “robustly decreased amyloid concentrations in the dentate gyrus of the hippocampus”.

Regarding `Cc1cccc(-c2cc3nccc(Nc4ccccc4)c3s2)c1` [BK40143], in experiment [1] (setting [3]), the “CD117 (single-labelled mast cells)” value is 1.06 and 0.7 and 1.08 and 1.14 and 0.83 and 6.55 and 2.98; the “CD117 / Total (immature-to-mature mast cell ratio)” value is 0.9815 and 0.9589 and 0.9231 and 0.9661 and 0.9881 and 0.9278 and 0.9141; the “CD117/FcER1 (double-labelled mast cells)” value is 0.02 and 0.03 and 0.09 and 0.04 and 0.01 and 0.51 and 0.28; the “CD117 Total” value is 1.08 and 0.73 and 1.17 and 1.18 and 0.84 and 7.06 and 3.26. Further, the “ratio of immature-to-mature mast cells (c-KIT+ versus c-KIT+/FcεR1α+) in whole blood” value in experiment [1] is “significantly greater ratio of immature-to-mature mast cells”. Moreover, the “amyloid concentrations in dentate gyrus (6E10 staining)” value in experiment [2] is “robustly decreased amyloid concentrations in the dentate gyrus of the hippocampus”.

Values taken from publication PMC11249953, “c-KIT inhibitors reduce pathology and improve behavior in the Tg(SwDI) model of Alzheimer’s disease” (Life Science Alliance, 2024).
